Data on seven compounds can be found in patent US6376517B1, “Pipecolic acid derivatives for vision and memory disorders” (GPI NIL Holdings, Inc., priority 1998, dated 2002).

pKi: −log10 of the molar value.

The test system of data set [1] is retinal ganglion cell axons. Nature of the data set: Protection of retinal ganglion cell axons from degeneration following optic nerve transection (Table E). The class given is in vivo, rat. The settings on record: 14 days after optic nerve transection; ± SEM. From the text:
Efficacy of representative compounds from different immunophilin ligand series in protecting retinal ganglion cell axons from degeneration following optic nerve transection is set forth in Table E.

Data set [2] in a line: Clearance (Table E comments). The class given is in vitro ADME.
Data set [3] has as its system retinal ganglion cells and optic nerve axons. In words: Optic nerve transection vision loss model, 14 or 28 day treatment, sacrifice at 90 days (Example 2, Table A). The format is in vivo, Sprague Dawley rats. The settings on record: for Proximal optic nerve myclin basic protein Density, % recovery: ± SEM, % areal coverage of optic nerve cross section. The source says:
All eyes and optic nerves stumps were removed.

A further data set deals with retinal ganglion cells. Nature of the data set: Optic nerve transection, 28 days treatment, sacrifice at 90 days (Example 13). The class given is in vivo, Sprague Dawley rats. The settings on record: 10 mg/kg/day s.c. for 28 days, 90 days after transection. From the text:
Transection of the mammalian optic nerve results in a brief period of abortive regeneration, but the majority of axotomized neurons die and the axons from many persisting ganglion cells die back beyond the optic nerve head.

In data set [4] the test system is retinal ganglion cells, optic nerve axons and myelin. Nature of the data set: Retinal ischemia (intraocular pressure above arterial blood pressure), examined 28 days later. The class given is in vivo, adult rats. The source says:
Retinal ganglion cells were retrogradely labeled in adult rats by bilateral injection of fluorogold in their lateral geniculate nuclei. Labeled ganglion cells in the normal rat retina appear as white profiles against the dark background (FIG. 1A). Complete retinal ischemia was produced by infusing normal saline solution into the retinal vitreous cavity of each eye until the intraocular pressure exceeded arterial blood pressure. 28 days after the ischemic episode extensive degeneration of retinal ganglion cell was evidenced by massive reduction in the density of fluorogold labeled cells (FIG. 1B).

The nature of data set [5]: Morris watermaze spatial learning and memory in aged rodents (Example 15). The class given is in vivo, C57BL/6N-Nia mice. The settings on record: aged impaired mice, 10 mg/kg daily, retention testing after 3 weeks of dosing. From the text:
The Morris watermaze is widely used for assessing spatial memory formation and retention in experimental animals. The test depends on the animal's ability to utilize spatial visual information in order to locate a submerged escape platform in a water tank. It is important that the tank itself be as devoid of specific visual features as possible—thus, it is always circular in shape, the sides are kept smooth and in uniform dull colors, and the water is rendered opaque with nontoxic watercolor pigment or powdered milk. This is to ensure that the animal navigates only by the use of more distant visual cues, or by the use of intra-maze cues specifically provided by the experimenter. The animals' path, speed, and swim time are tracked with a ceiling camera for later computerized analysis. Over the course of several successive trials, spatial learning can therefore be defined as a drop of distance swum, or time elapsed, from placement in the tank until escape onto the invisible platform. The procedure involved using three-month old (young) and 18-19 month old male C57BL/6N-Nia (aged) mice which habituated to the well known and conventional Morris watermaze during a 4 trials/day, 3-4 day visible platform training phase. […] Swim Distances (cm) were analyzed in a 7×5 ANOVA including Groups and Blocks (1-5) as factors in the analysis, treating Blocks as a repeated measure.

In the next data set the target is FKBP12 (Homo sapiens, UniProt P62942). In words: Ki Test Procedure: inhibition of peptidyl-prolyl isomerase (rotamase) activity, chymotrypsin-coupled assay. The format is biochemical. The settings on record: Table E comments.
FKBP12, sequence (P62942 whole entry, species assumed): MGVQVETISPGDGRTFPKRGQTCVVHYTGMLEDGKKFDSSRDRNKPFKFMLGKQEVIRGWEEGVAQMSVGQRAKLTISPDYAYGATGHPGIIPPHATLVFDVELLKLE

Method for FKBP12: The inhibition of the prolyl peptidyl cis-trans isomerase activity of FKBP may be measured as an indicator of this affinity.
The cis-trans isomerization of an alanine-proline bond in a model substrate, N-succinyl-Ala-Ala-Pro-Phe-p-nitroanilide, is monitored spectrophotometrically in a chymotrypsin-coupled assay, which releases para-nitroanilide from the trans form of the substrate. The inhibition of this reaction caused by the addition of different concentrations of inhibitor is determined, and the data is analyzed as a change in first-order rate constant as a function of inhibitor concentration to yield the apparent Ki values.
In a plastic cuvette are added 950 mL of ice cold assay buffer (25 mM HEPES, pH 7.8, 100 mM NaCl), 10 mL of FKBP (2.5 mM in 10 mM Tris-Cl pH 7.5, 100 mM NaCl, 1 mM dithiothreitol), 25 mL of chymotrypsin (50 mg/ml in 1 mM HCl) and 10 mL of test compound at various concentrations in dimethyl sulfoxide. The reaction is initiated by the addition of 5 mL of substrate (succinyl-Ala-Phe-Pro-Phe-para-nitroanilide, 5 mg/mL in 2.35 mM LiCl in trifluoroethanol).
The absorbance at 390 nm versus time is monitored for 90 seconds using a spectrophotometer and the rate constants are determined from the absorbance versus time data files.

With `O=C(SCCCc1ccccc1)[C@@H]1CCCN1C(=O)NC12CC3CC(CC(C3)C1)C2` [B], in data set [1], the “RT97 + RGC axon density 14 days after On transection (% ON axons rescued)” value is listed as 100.0% ± 5.2% SEM.

`CCC(C)(C)C(=O)C(=O)N1CCCCC1C(=O)OC(CCc1ccccc1)CCc1ccccc1` (centres unmarked) [E] came in with a Clearance in data set [2] of 41.8 µL/min.

In the case of `CCC(C)(C)C(=O)C(=O)N1CCC[C@H]1C(=O)OCCCc1cccnc1` [GPI 1046], the “RGC Counts” value in data set [3] (14 days treatment, 10 mg/kg/day sc, 90 days after transection, mean density ± SEM of Fluoro-gold labeled RGC in 400 μm × 400 μm gridfields) was found to be 49 ± 5.3. In data set [3] (14 days treatment, cross sectional area compared to sham control), the “Distal optic nerve shrinkage” value was determined as 33% shrinkage. Further, in data set [3] (14 days treatment, cross sectional area multiplied by myelin density), the “Distal optic nerve myclin basic protein Density, loss” value amounted to 47% loss. Also, the “Proximal optic nerve myclin basic protein Density, % recovery” value was found to be 1.6 ± 3.0 SEM % recovery in data set [3] (14 days treatment) and 70 ± 6.3 SEM % recovery in data set [3] (28 days treatment). Further, the “density of large, medium and small caliber optic nerve axons” value in data set [3] (28 day treatment) was “significant increase”. Further, the “ON Axon density” value in data set [3] (28 days treatment, 90 days after transection, RT97 labeled axons in 200 μm × 200 μm region, mean ± SEM) is reported as 1526 ± 120. Also, in data set [3] (28 days treatment, cross sectional area compared to sham control), the “Distal optic nerve, less shrinkage” value was 56% less shrinkage*. The “ganglion cell population spared” value in the data set on retinal ganglion cells is reported as 25%. For the same compound, the “preservation of axons in the proximal stump of the transected nerve” value with retinal ganglion cells (RT97 neurofilament) was “preserved the axons of virtually all protected neurons”. The “protection of retinal ganglion cells (fluorogold labeled) after retinal ischemia” value in data set [4] (10 mg/kg s.c. 1 hour prior to ischemia and 10 mg/kg/day for the next four days, 28 days after ischemia) is listed as “noticeable protection of a large proportion of the vulnerable ganglion cell population”. The “density of degenerating myelin figures after retinal ischemia” value in data set [4] (28 days after 1 hour retinal ischemic episode) was “dramatically decreased the density of degenerating myelin figures”. Also, the “protection of optic nerve axons after retinal ischemia” value in data set [4] (28 days after 1 hour retinal ischemic episode, toluidine blue staining) is “protected the majority of optic nerve axons from degeneration”. Further, in data set [5], the “spatial memory performance (Morris watermaze retention, swim distance)” value is “significantly enhanced spatial memory performance”.

As to `C=C(C(=O)N1CCCC[C@H]1C(=O)O)C(C)(C)CC` [G], at FKBP12, the pKi (as a rule, the Ki on a negative log10 scale, so that one unit is a factor of ten) was less than 5.00. Further, the “RT97 + RGC axon density 14 days after On transection (% ON axons rescued)” value in data set [1] is listed as 34.0% ± 4.8% SEM.

Regarding `C=C(C(=O)N1CCCC[C@H]1C(N)=O)C(C)(C)CC` [H], the “RT97 + RGC axon density 14 days after On transection (% ON axons rescued)” value in data set [1] is 30.3% ± 8.0% SEM.

`C=C(C(=O)N1CCC[C@H]1C(=O)O)C(C)(C)CC` [L] had a pKi at FKBP12 of less than 5.11. Moreover, the Clearance in data set [2] came to 5.2 µL/min. Further, in data set [1], the “RT97 + RGC axon density 14 days after On transection (% ON axons rescued)” value is on record as 7.8% ± 3.0% SEM.

As for `CCC(C)(C)C(=O)C(=O)N1CCC[C@H]1C(=O)SCCC(c1ccccc1)c1ccccc1` [M], the “RT97 + RGC axon density 14 days after On transection (% ON axons rescued)” value in data set [1] is listed as −6.3% ± 3.9% SEM.
